Test results as given in patent US20150258059A1, “ANTIMICROBIAL AND RADIOPROTECTIVE COMPOUNDS” (BioDiem, Ltd, priority 2001, published 2015).

The molecules below were run on Enterobacter aerogenes B-687 (assay: Sensitivity of strains: suppression of growth). Conditions: Compound (1) 1.0%; antibiotics disc method.
Type: cell-based

SMILES	Suppression of Growth (+/−)
CN(C)[C@@H]1C(=O)C(C(N)=O)=C(O)[C@@]2(O)C(=O)C3=C(O)c4c(O)cccc4[C@@](C)(O)[C@H]3C[C@@H]12 [Antibiotic 13, tetracycline]	−

These molecules were tested on Escherichia coli M-17 (assay: Sensitivity of strains: suppression of growth). Conditions: Compound (1) 1.0%; antibiotics disc method.
Type: cell-based

SMILES	Suppression of Growth (+/−)
CN(C)[C@@H]1C(=O)C(C(N)=O)=C(O)[C@@]2(O)C(=O)C3=C(O)c4c(O)cccc4[C@@](C)(O)[C@H]3C[C@@H]12 [Antibiotic 13, tetracycline]	+

What follows are molecules tested on Klebsiella pneumoniae M-248 (assay: Sensitivity of strains: suppression of growth). Conditions: Compound (1) 1.0%; antibiotics disc method.
Type: cell-based

SMILES	Suppression of Growth (+/−)
CN(C)[C@@H]1C(=O)C(C(N)=O)=C(O)[C@@]2(O)C(=O)C3=C(O)c4c(O)cccc4[C@@](C)(O)[C@H]3C[C@@H]12 [Antibiotic 13, tetracycline]	−

These molecules were tested on Bacillus sp. B-575 (assay: Sensitivity of strains: suppression of growth). Conditions: not given. Note: key: + sensitive strains; + moderately sensitive strains; − stable strains.
Type: cell-based

SMILES	Suppression of Growth (+/−)
CN(C)[C@@H]1C(=O)C(C(N)=O)=C(O)[C@@]2(O)C(=O)C3=C(O)c4c(O)cccc4[C@@](C)(O)[C@H]3C[C@@H]12 [Antibiotic 13, tetracycline]	+

These molecules were tested on γ-hemolytic streptococcus B-672 (assay: Sensitivity of strains: suppression of growth). Conditions: Compound (1) 1.0%; antibiotics disc method.
Type: cell-based

SMILES	Suppression of Growth (+/−)
CN(C)[C@@H]1C(=O)C(C(N)=O)=C(O)[C@@]2(O)C(=O)C3=C(O)c4c(O)cccc4[C@@](C)(O)[C@H]3C[C@@H]12 [Antibiotic 13, tetracycline]	−

The molecules below were run on Acinetobacter B-676 (assay: Sensitivity of strains: suppression of growth). Conditions: Compound (1) 1.0%; antibiotics disc method.
Type: cell-based

SMILES	Suppression of Growth (+/−)
CN(C)[C@@H]1C(=O)C(C(N)=O)=C(O)[C@@]2(O)C(=O)C3=C(O)c4c(O)cccc4[C@@](C)(O)[C@H]3C[C@@H]12 [Antibiotic 13, tetracycline]	−

What follows are molecules tested on Acinetobacter B-677 (assay: Sensitivity of strains: suppression of growth). Conditions: Compound (1) 1.0%; antibiotics disc method.
Type: cell-based

SMILES	Suppression of Growth (+/−)
CN(C)[C@@H]1C(=O)C(C(N)=O)=C(O)[C@@]2(O)C(=O)C3=C(O)c4c(O)cccc4[C@@](C)(O)[C@H]3C[C@@H]12 [Antibiotic 13, tetracycline]	−

Each molecule was assayed on Staphylococci epidermidis D-513 (assay: Sensitivity of strains: suppression of growth). Conditions: Compound (1) 1.0%; antibiotics disc method.
Type: cell-based

SMILES	Suppression of Growth (+/−)
CN(C)[C@@H]1C(=O)C(C(N)=O)=C(O)[C@@]2(O)C(=O)C3=C(O)c4c(O)cccc4[C@@](C)(O)[C@H]3C[C@@H]12 [Antibiotic 13, tetracycline]	−

These molecules were tested on Enterobacter aerogenes B-679 (assay: Sensitivity of strains: suppression of growth). Conditions: Compound (1) 1.0%; antibiotics disc method.
Type: cell-based

SMILES	Suppression of Growth (+/−)
CN(C)[C@@H]1C(=O)C(C(N)=O)=C(O)[C@@]2(O)C(=O)C3=C(O)c4c(O)cccc4[C@@](C)(O)[C@H]3C[C@@H]12 [Antibiotic 13, tetracycline]	−

The molecules below were run on Staphylococcus aureus M-12159 (assay: Sensitivity of strains: suppression of growth). Conditions: Compound (1) 1.0%; antibiotics disc method.
Type: cell-based

SMILES	Suppression of Growth (+/−)
CN(C)[C@@H]1C(=O)C(C(N)=O)=C(O)[C@@]2(O)C(=O)C3=C(O)c4c(O)cccc4[C@@](C)(O)[C@H]3C[C@@H]12 [Antibiotic 13, tetracycline]	−

Each molecule was assayed on Staphylococcus aureus M-209 (assay: Sensitivity of strains: suppression of growth). Conditions: Compound (1) 1.0%; antibiotics disc method.
Type: cell-based

SMILES	Suppression of Growth (+/−)
CN(C)[C@@H]1C(=O)C(C(N)=O)=C(O)[C@@]2(O)C(=O)C3=C(O)c4c(O)cccc4[C@@](C)(O)[C@H]3C[C@@H]12 [Antibiotic 13, tetracycline]	−

Each molecule was assayed on Neisseria meningitidis M-6231 (assay: Sensitivity of strains: suppression of growth). Conditions: Compound (1) 1.0%; antibiotics disc method.
Type: cell-based

SMILES	Suppression of Growth (+/−)
CN(C)[C@@H]1C(=O)C(C(N)=O)=C(O)[C@@]2(O)C(=O)C3=C(O)c4c(O)cccc4[C@@](C)(O)[C@H]3C[C@@H]12 [Antibiotic 13, tetracycline]	−

Each molecule was assayed on Alkaligenes sp. B-667 (assay: Sensitivity of strains: suppression of growth). Conditions: Compound (1) 1.0%; antibiotics disc method.
Type: cell-based

SMILES	Suppression of Growth (+/−)
CN(C)[C@@H]1C(=O)C(C(N)=O)=C(O)[C@@]2(O)C(=O)C3=C(O)c4c(O)cccc4[C@@](C)(O)[C@H]3C[C@@H]12 [Antibiotic 13, tetracycline]	−

These molecules were tested on β-hemolytic streptococcus B-624 (assay: Sensitivity of strains: suppression of growth). Conditions: Compound (1) 1.0%; antibiotics disc method.
Type: cell-based

SMILES	Suppression of Growth (+/−)
CN(C)[C@@H]1C(=O)C(C(N)=O)=C(O)[C@@]2(O)C(=O)C3=C(O)c4c(O)cccc4[C@@](C)(O)[C@H]3C[C@@H]12 [Antibiotic 13, tetracycline]	−

What follows are molecules tested on Alkaligenes sp. B-689 (assay: Sensitivity of strains: suppression of growth). Conditions: Compound (1) 1.0%; antibiotics disc method.
Type: cell-based

SMILES	Suppression of Growth (+/−)
CN(C)[C@@H]1C(=O)C(C(N)=O)=C(O)[C@@]2(O)C(=O)C3=C(O)c4c(O)cccc4[C@@](C)(O)[C@H]3C[C@@H]12 [Antibiotic 13, tetracycline]	−

What follows are molecules tested on Escherichia coli B-65 (assay: Sensitivity of strains: suppression of growth). Conditions: Compound (1) 1.0%; antibiotics disc method.
Type: cell-based

SMILES	Suppression of Growth (+/−)
CN(C)[C@@H]1C(=O)C(C(N)=O)=C(O)[C@@]2(O)C(=O)C3=C(O)c4c(O)cccc4[C@@](C)(O)[C@H]3C[C@@H]12 [Antibiotic 13, tetracycline]	+

Each molecule was assayed on Neisseria meningitidis M-A72 (assay: Sensitivity of strains: suppression of growth). Conditions: Compound (1) 1.0%; antibiotics disc method.
Type: cell-based

SMILES	Suppression of Growth (+/−)
CN(C)[C@@H]1C(=O)C(C(N)=O)=C(O)[C@@]2(O)C(=O)C3=C(O)c4c(O)cccc4[C@@](C)(O)[C@H]3C[C@@H]12 [Antibiotic 13, tetracycline]	−

Each molecule was assayed on Pseudomonas aeruginosa B-601 (assay: Sensitivity of strains: suppression of growth). Conditions: Compound (1) 1.0%; antibiotics disc method.
Type: cell-based

SMILES	Suppression of Growth (+/−)
CN(C)[C@@H]1C(=O)C(C(N)=O)=C(O)[C@@]2(O)C(=O)C3=C(O)c4c(O)cccc4[C@@](C)(O)[C@H]3C[C@@H]12 [Antibiotic 13, tetracycline]	+

These molecules were tested on Corynebacterium diphtheriae B-670 (assay: Sensitivity of strains: suppression of growth). Conditions: Compound (1) 1.0%; antibiotics disc method.
Type: cell-based

SMILES	Suppression of Growth (+/−)
CN(C)[C@@H]1C(=O)C(C(N)=O)=C(O)[C@@]2(O)C(=O)C3=C(O)c4c(O)cccc4[C@@](C)(O)[C@H]3C[C@@H]12 [Antibiotic 13, tetracycline]	+

These molecules were tested on Yersinia pseudotuberculosis (assay: not given). Conditions: Compound (1) 1.0%; antibiotics disc method.
Type: cell-based

SMILES	Suppression of Growth (+/−)
CN(C)[C@@H]1C(=O)C(C(N)=O)=C(O)[C@@]2(O)C(=O)C3=C(O)c4c(O)cccc4[C@@](C)(O)[C@H]3C[C@@H]12 [Antibiotic 13, tetracycline]	−

The molecules below were run on Staphylococcus aureus B-674 (assay: Sensitivity of strains: suppression of growth). Conditions: Compound (1) 1.0%; antibiotics disc method.
Type: cell-based

SMILES	Suppression of Growth (+/−)
CN(C)[C@@H]1C(=O)C(C(N)=O)=C(O)[C@@]2(O)C(=O)C3=C(O)c4c(O)cccc4[C@@](C)(O)[C@H]3C[C@@H]12 [Antibiotic 13, tetracycline]	+

These molecules were tested on Acinetobacter B-681 (assay: Sensitivity of strains: suppression of growth). Conditions: Compound (1) 1.0%; antibiotics disc method.
Type: cell-based

SMILES	Suppression of Growth (+/−)
CN(C)[C@@H]1C(=O)C(C(N)=O)=C(O)[C@@]2(O)C(=O)C3=C(O)c4c(O)cccc4[C@@](C)(O)[C@H]3C[C@@H]12 [Antibiotic 13, tetracycline]	−

What follows are molecules tested on Klebsiella pneumoniae M-A21 (assay: Sensitivity of strains: suppression of growth). Conditions: Compound (1) 1.0%; antibiotics disc method.
Type: cell-based

SMILES	Suppression of Growth (+/−)
CN(C)[C@@H]1C(=O)C(C(N)=O)=C(O)[C@@]2(O)C(=O)C3=C(O)c4c(O)cccc4[C@@](C)(O)[C@H]3C[C@@H]12 [Antibiotic 13, tetracycline]	−

Each molecule was assayed on Staphylococcus aureus B-685 (assay: Sensitivity of strains: suppression of growth). Conditions: Compound (1) 1.0%; antibiotics disc method.
Type: cell-based

SMILES	Suppression of Growth (+/−)
CN(C)[C@@H]1C(=O)C(C(N)=O)=C(O)[C@@]2(O)C(=O)C3=C(O)c4c(O)cccc4[C@@](C)(O)[C@H]3C[C@@H]12 [Antibiotic 13, tetracycline]	−

These molecules were tested on Staphylococcus epidermidis BK-30 (assay: Sensitivity of strains: suppression of growth). Conditions: Compound (1) 1.0%; antibiotics disc method.
Type: cell-based

SMILES	Suppression of Growth (+/−)
CN(C)[C@@H]1C(=O)C(C(N)=O)=C(O)[C@@]2(O)C(=O)C3=C(O)c4c(O)cccc4[C@@](C)(O)[C@H]3C[C@@H]12 [Antibiotic 13, tetracycline]	−

These molecules were tested on Escherichia coli B-683 (assay: Sensitivity of strains: suppression of growth). Conditions: Compound (1) 1.0%; antibiotics disc method.
Type: cell-based

SMILES	Suppression of Growth (+/−)
CN(C)[C@@H]1C(=O)C(C(N)=O)=C(O)[C@@]2(O)C(=O)C3=C(O)c4c(O)cccc4[C@@](C)(O)[C@H]3C[C@@H]12 [Antibiotic 13, tetracycline]	+
